Laboratory results from ChEMBL document CHEMBL1201862, “PubChem BioAssay data set” (2004).
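Method: 48-hour compound exposure of cells in 96-well plates, five concentrations, linear interpolation of endpoints. GI50 is the concentration that inhibits growth by half.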 Calls of active or inactive are those of the source. Rule as the data show it: active = GI50 up to about 1.1 µM and inactive = higher.

Tests used:
Experiment in all cases: inhibition of tumour cell growth, NCI panel, 48 h
ACHN = test system: ACHN
DU-145 = test system: DU-145
HCT-15 = test system: HCT-15
HOP-92 = test system: HOP-92
HT-29 = test system: HT-29
MOLT-4 = test system: MOLT-4
Malme-3M = test system: Malme-3M
NCI-H226 = test system: NCI-H226
NCI-H522 = test system: NCI-H522
OVCAR-4 = test system: OVCAR-4
SF-268 = test system: SF-268
SF-295 = test system: SF-295
SK-MEL-28 = test system: SK-MEL-28
SK-MEL-2 = test system: SK-MEL-2
SK-MEL-5 = test system: SK-MEL-5
UACC-257 = test system: UACC-257
UACC-62 = test system: UACC-62
SK-OV-3 = test system: SK-OV-3
SN12C = test system: SN12C
786-0 = test system: 786-0

SMILES	GI50 (ACHN)	GI50 (DU-145)	GI50 (HCT-15) [µM]	GI50 (HOP-92)	GI50 (HT-29)	GI50 (MOLT-4)	GI50 (Malme-3M)	GI50 (NCI-H226)	GI50 (NCI-H522)	GI50 (OVCAR-4)	GI50 (SF-268)	GI50 (SF-295)	GI50 (SK-MEL-28)	GI50 (SK-MEL-2)	GI50 (SK-MEL-5)	GI50 (UACC-257)	GI50 (UACC-62)	GI50 (SK-OV-3)	GI50 (SN12C)	GI50 (786-0)
O=[N+]([O-])c1ccc(Nc2nc3ccccc3s2)cc1	29.5 µM (inactive)	69.8 µM (inactive)	28.8	26.2 µM (inactive)	34.6 µM (inactive)	8.36 µM (inactive)	15.9 µM (inactive)	63 µM (inactive)	14.4 µM (inactive)	43.2 µM (inactive)	26.3 µM (inactive)	37.6 µM (inactive)	46.2 µM (inactive)	25.5 µM (inactive)	21.6 µM (inactive)	25.8 µM (inactive)	20.2 µM (inactive)	–	–	–
CN(C)C(=S)SCc1ccccc1	–	> 100 µM (inactive)	> 100	88.3 µM (inactive)	> 100 µM (inactive)	–	27.2 µM (inactive)	54.2 µM (inactive)	19.8 µM (inactive)	–	> 100 µM (inactive)	> 100 µM (inactive)	> 100 µM (inactive)	83.4 µM (inactive)	> 100 µM (inactive)	79.8 µM (inactive)	> 100 µM (inactive)	> 100 µM (inactive)	> 100 µM (inactive)	–
CC1C/C(=C\c2ccc(O)c(O)c2)C(=O)/C(=C/c2ccc(O)c(O)c2)C1 (stereo unspecified)	8.71 µM (inactive)	8.85 µM (inactive)	8.85	6.18 µM (inactive)	18 µM (inactive)	4.76 µM (inactive)	10.4 µM (inactive)	2.86 µM (inactive)	1.81 µM (inactive)	7.16 µM (inactive)	6.12 µM (inactive)	13.7 µM (inactive)	7.69 µM (inactive)	6.97 µM (inactive)	4.23 µM (inactive)	14.5 µM (inactive)	3.17 µM (inactive)	18.1 µM (inactive)	5.48 µM (inactive)	–
S=C(NCc1ccccn1)N/N=C/c1ccccn1	< 0.01 µM (active)	0.268 µM (active)	< 0.01	< 0.0206 µM (active)	–	< 0.01 µM (active)	0.614 µM (active)	< 0.0168 µM (active)	< 0.01 µM (active)	< 0.0371 µM (active)	0.0214 µM (active)	0.0482 µM (active)	0.518 µM (active)	0.0234 µM (active)	0.0184 µM (active)	< 0.01 µM (active)	< 0.0181 µM (active)	–	0.0724 µM (active)	< 0.01 µM (active)
O=S(=O)(OI(O)CC(F)(F)F)C(F)(F)F	> 100 µM (inactive)	> 100 µM (inactive)	> 100	> 100 µM (inactive)	> 100 µM (inactive)	> 100 µM (inactive)	–	> 100 µM (inactive)	> 100 µM (inactive)	> 100 µM (inactive)	> 100 µM (inactive)	> 100 µM (inactive)	> 100 µM (inactive)	> 100 µM (inactive)	> 100 µM (inactive)	> 100 µM (inactive)	> 100 µM (inactive)	> 100 µM (inactive)	> 100 µM (inactive)	> 100 µM (inactive)
Cc1ccc(C(=O)N/N=C(\N=N\c2cccc([N+](=O)[O-])c2)c2ccc(N(CCC#N)CCC#N)cc2C)cc1	42.9 µM (inactive)	29 µM (inactive)	30.8	45.9 µM (inactive)	29.2 µM (inactive)	24 µM (inactive)	4.12 µM (inactive)	–	20.4 µM (inactive)	23.7 µM (inactive)	33.6 µM (inactive)	26.9 µM (inactive)	> 46.8 µM (inactive)	26.9 µM (inactive)	13.6 µM (inactive)	10.6 µM (inactive)	26.1 µM (inactive)	36.8 µM (inactive)	46.6 µM (inactive)	34.4 µM (inactive)
O=C(NCCNCCCNC(=O)c1cc(-c2ccccc2)nc2ccccc12)c1cccc(OCc2ccccc2)c1OCc1ccccc1	1.73 µM (inactive)	1.81 µM (inactive)	1.74	1.53 µM (inactive)	1.63 µM (inactive)	1.85 µM (inactive)	2.07 µM (inactive)	1.69 µM (inactive)	1.73 µM (inactive)	1.64 µM (inactive)	1.88 µM (inactive)	1.64 µM (inactive)	1.81 µM (inactive)	–	1.71 µM (inactive)	1.83 µM (inactive)	1.93 µM (inactive)	1.71 µM (inactive)	1.77 µM (inactive)	1.71 µM (inactive)
Cc1cc(-n2c(/C=C/c3ccc(Cl)cc3)nc3cc(Cl)ccc3c2=O)on1	7.57 µM (inactive)	> 50 µM (inactive)	28.1	16 µM (inactive)	> 50 µM (inactive)	> 50 µM (inactive)	24 µM (inactive)	12.4 µM (inactive)	23.2 µM (inactive)	1.25 µM (inactive)	15.7 µM (inactive)	22 µM (inactive)	> 50 µM (inactive)	–	16.4 µM (inactive)	> 50 µM (inactive)	> 50 µM (inactive)	14.9 µM (inactive)	20.5 µM (inactive)	1.47 µM (inactive)
